Experiment: gradient 5% acetonitrile 3 min, to 50% in 2 min, to 85% in 15 min, held 3 min, 100 µL/min
Conditions: column: Zorbax Extend-C18 2.1 x 50 mm; eluents: water / acetonitrile, 0.1% formic acid
Outline: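 Each retention time is based on an adduct peak selected computationally and verified by manual inspection. Measurements used HPLC–quadrupole time-of-flight mass spectrometry in positive and negative ionization mode on mixtures of ~100 pure standards. Chromatography ran on a Zorbax Extend-C18 column (2.1 × 50 mm, 1.8 μm) at 100 μL/min with water and acetonitrile, each containing 0.1% formic acid, and dead and dwell volumes of 40 μL and 900 μL.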

CCc1nc2cc(-c3noc(-c4ccccc4F)n3)ccc2o1 gave an RP-LC retention time of 1140 s.
With O=C(NCC(c1cccnc1)c1c[nH]c2ccccc12)Nc1cccc(Br)c1 (centres undefined) the RP-LC retention time was 714 s.
Work on Cc1ccc(-c2noc(Cc3nc(-c4cccc(Cl)c4)cs3)n2)cc1 yielded an RP-LC retention time of 1040 s.
With O=C(NCc1nnnn1C1CCCCC1)C1CC1 the RP-LC retention time was 647 s.
For CCCC(=O)N1CCC2(C1)C(=O)Nc1ccc(OC)cc12 (centres undefined), the RP-LC retention time was 652 s.
O=C(Nc1ccccc1)N(Cc1cccnc1)C1CN(Cc2ccc(F)c(F)c2)C1 showed an RP-LC retention time of 965 s.
CCC(C)NC(=O)Cn1c(=O)n(-c2cc(OC)cc(OC)c2)c(=O)c2ccccc21 (centres undefined) gave an RP-LC retention time of 800 s.
With Cc1ccc(C(=O)N2CCCn3cc(-c4ccccc4F)nc32)cn1 the RP-LC retention time was 627 s.
Work on COc1cc(-n2c(=S)[nH]c3ccccc3c2=O)c(Cl)cc1Cl yielded an RP-LC retention time of 923 s.
O=C(Nc1ccccc1Cl)c1cnc(-c2ccc(F)cc2)nc1-c1ccncc1 showed an RP-LC retention time of 1000 s.
O=C(Nc1cnc(N2CCCC2)nc1)c1cccs1 showed an RP-LC retention time of 667 s.
In the case of CCCN1CCN(c2cc(C(=O)O)c3cc(NS(=O)(=O)c4cc(F)ccc4F)ccc3n2)CC1, the RP-LC retention time is reported as 618 s.
Work on Cc1cccc(-c2nnc(-c3cc(S(=O)(=O)N(C)C)ccc3Cl)o2)c1 yielded an RP-LC retention time of 1050 s.
CCn1c(=O)c(SCC(=O)NCCN(C)Cc2ccccc2)nc2ccccc21 showed an RP-LC retention time of 641 s.
With Cc1cc2nn(CC(=O)NCc3ccco3)c(=O)n2c(Nc2ccc(C)c(F)c2)n1 the RP-LC retention time was 923 s.
For Cc1cc(OCC(=O)Nc2cccc(Cl)c2)nc(N2CCN(c3ccccc3)CC2)n1, the RP-LC retention time was 904 s.
CC1=C(c2ccc(C)cc2)S(=O)(=O)N=C1N1CCC(NC(=O)c2sccc2C)CC1 showed an RP-LC retention time of 596 s.
In the case of COc1ccc(Cl)cc1NC(=O)N1CCCC1c1nc(-c2ccccc2OC)no1 (centres undefined), the RP-LC retention time is reported as 1010 s.
CCc1ccc(S(=O)(=O)Nc2ccc(-c3cn4ccc(C)nc4n3)cc2)cc1 gave an RP-LC retention time of 696 s.
Cc1cccc(CN2CCCn3nc(C(=O)NCc4ccc5c(c4)OCO5)cc3C2=O)c1 showed an RP-LC retention time of 861 s.
For Cc1cccc(NS(=O)(=O)c2cc3c(=O)n(C)ncn3c2)c1, the RP-LC retention time was 797 s.
Work on CCc1ccc(-n2nc(CO)c(C(=O)NC3CCCC3)n2)cc1 yielded an RP-LC retention time of 1120 s.
For Cc1nnc(NC(=O)Cc2csc(SCC(=O)c3ccc(F)cc3)n2)s1, the RP-LC retention time was 724 s.
Work on Cc1ccc(NC(=O)Cc2nnc(-c3cnccn3)o2)cc1F yielded an RP-LC retention time of 714 s.
O=C(Cn1nc2c(SC3CCCCC3)nccn2c1=O)NC1CCCC1 gave an RP-LC retention time of 939 s.
CCOc1ccc(NC(=O)Cn2c(CC)nc3c(c2=O)CN(Cc2ccccc2)CC3)cc1 showed an RP-LC retention time of 666 s.
c1ccc(C(NCCNC(c2ccccc2)c2ccccc2)c2ccccc2)cc1 gave an RP-LC retention time of 849 s.
With CCc1ccccc1NC(=O)N1CCC2(CC1)NC(=O)c1cccc(Cl)c1N2 the RP-LC retention time was 766 s.
Compound CCc1ccccc1NC(=O)Cn1c(C(C)C)nc2c(c1=O)CCN(Cc1ccccc1)C2 has an RP-LC retention time of 699 s.
For CCNC(=O)C1CCc2sc(C(=O)N(CC)CC)cc2C1 (centres undefined), the RP-LC retention time was 660 s.
With Cc1ccc2c(c1)C(=O)NC1(CCN(C(=O)c3ccc(F)c(Cl)c3)CC1)N2C the RP-LC retention time was 919 s.
CN(C)S(=O)(=O)c1ccc(C(=O)N2CCCC(c3nnc(-c4cccs4)o3)C2)cc1 (centres undefined) gave an RP-LC retention time of 714 s.
Work on Cc1ccc2ncn(C3CCN(C(=O)Nc4ccc(C)c(F)c4)CC3)c(=O)c2c1 yielded an RP-LC retention time of 851 s.
For NS(=O)(=O)c1cccnc1Nc1ccc(Br)cc1, the RP-LC retention time was 913 s.
With CC1CCN(S(=O)(=O)c2ccc(-c3nnc(C(=O)N4CCCCC4)o3)cc2)CC1 the RP-LC retention time was 1040 s.
CC1OC(O[C@H]2C[C@@H](O)[C@]3(CO)[C@H]4[C@H](O)C[C@]5(C)[C@@H](C6=CC(=O)OC6)CC[C@]5(O)[C@@H]4CC[C@]3(O)C2)C(O)C(O)C1O (some centres undefined) showed an RP-LC retention time of 594 s.
CCNC(=O)c1nnn(-c2cccc(Cl)c2)c1-c1cccnc1 showed an RP-LC retention time of 740 s.
With Cc1ccc(-c2csc(NC(=O)CCCOc3ccccc3C)n2)cc1 the RP-LC retention time was 1300 s.
Work on Cc1ccc(Nc2cc(N3CCC(C(=O)N4CCSCC4)CC3)ncn2)cc1 yielded an RP-LC retention time of 682 s.
CCOC(=O)c1nc(NCCCN2CCN(c3ccc(F)cc3)CC2)c2ccccc2n1 gave an RP-LC retention time of 647 s.
In the case of COc1ccc(NC(=O)c2nnc(COCC(=O)NCCc3c[nH]c4ccc(Cl)cc34)s2)cc1, the RP-LC retention time is reported as 894 s.
In the case of Cc1ccc(Cn2c(CN3CCC(C(=O)N4CCOCC4)CC3)cc3ccccc32)cc1, the RP-LC retention time is reported as 717 s.
CCOc1ccc(NC(=O)Cn2c(=O)n(-c3ccc(C)cc3)c(=O)c3c2cc(C)n3C)cc1 showed an RP-LC retention time of 824 s.
COc1ccc2c(c1)C1(CCN(S(=O)(=O)c3cccc(F)c3)C1)C(=O)N2C (centres undefined) gave an RP-LC retention time of 874 s.
